Source: the supplement of paper PMC10307832

Compound: C[C@H]([C@@H](C(=O)N)NC(=O)[C@@H]1CSSC[C@@H](C(=O)N[C@H](C(=O)N[C@@H](C(=O)N[C@H](C(=O)N1)CCCCN)CC2=CNC3=CC=CC=C32)CC4=CC=C(C=C4)O)NC(=O)[C@@H](CC5=CC=CC=C5)N)O [CAP-232] + Cc1nc(NC(=O)N2CCC[C@H]2C(N)=O)sc1-c1ccnc(C(C)(C)C(F)(F)F)c1 [Alpelisib] (partner 2 µM)
Test: relative viability (nuclei count vs DMSO), 5 days (fraction); higher = more cells survive
How it was run: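 Relative viability equals treated-well nuclei counts divided by vehicle-well nuclei counts. Counts came from 4× images of lung cancer cell lines grown in 1536-well plates for 5 days after pin-tool dosing on the day after seeding. Dosing used one drug alone or a fixed anchor-drug dose plus five library-drug doses (not always all listed) in √10 steps, and values are medians of duplicate plates.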

Cell Line	relative viability (first compound 0.4 µM)	relative viability (first compound 1.265 µM)	relative viability (first compound 4 µM)	relative viability (first compound 12.65 µM)
PC-14	1.06	0.911	1.14	0.926
NCI-H3122	0.735	0.76	0.838	0.84
SK-MES-1	0.997	0.944	1.06	0.938
NCI-H1944	0.956	0.806	0.794	0.782
LK-2	1.02	1.15	1.2	1.75
RERF-LC-KJ	0.951	0.693	0.833	0.816
COR-L23	0.725	0.754	0.701	0.616
NCI-H1355	0.845	0.842	0.963	0.864
NCI-H460	0.512	0.541	0.595	0.211
NCI-H1993	0.605	0.674	0.719	0.633
HCC-15	0.935	0.878	0.86	0.824
NCI-H23	0.848	0.743	0.714	0.668
NCI-H1395	0.888	1.08	0.912	0.848
NCI-H1666	0.991		1.05	0.816
NCI-H2405	0.623	0.924	0.683	0.396
NCI-H2009	1.17	1.08	1.13	1.03
HCC-78	0.317	0.371	0.312	0.819
NCI-H2170	0.81	0.865	0.831	0.76
NCI-H1793	0.829	0.669	0.573	0.627
HCC-366	0.488	0.337	0.521	0.243
NCI-H1651	1.01	0.841	1.08	0.728
LC-2-ad	0.931	0.823	0.804	0.824
HCC-827	0.913	0.925	0.967	0.919
SW 1573	0.744	0.861	0.8	0.672

Cell Line	relative viability (first compound 0.4 µM)	relative viability (first compound 1.265 µM)	relative viability (first compound 4 µM)	relative viability (first compound 12.65 µM)
ABC-1	1.05	1.15	1.24	0.504
NCI-H1703	0.34	0.378	0.344	0.351
COR-L 105	1.09	0.917	1.16	0.594
LOU-NH91	0.738	0.771	0.699	0.58
NCI-H661	0.594	0.382	0.913	0.596
LU99A	0.515	0.517	0.471	0.497
UMC-11	1.06	1.04	1.16	0.777
HOP-62	0.967		1.17	1.29
NCI-H727		0.59	0.633	0.59
LCLC-103H	0.948	0.921	0.972	0.898
NCI-H1734	0.611	0.662	0.755	0.702
EKVX	0.806	0.969	0.833	0.715
HARA	0.791	0.847	0.876	0.58
EMC-BAC-2	0.78	0.718	0.743	0.623
PC-3 [JPC-3]	1.1	1.08	1.03	1.08
NCI-H520	0.945	0.93	1.08	0.568
NCI-H1755	0.984	0.91	1.1	0.763
NCI-H2087	0.983	1.17	0.929	0.841
NCI-H2023	0.711	0.592	0.637	0.237
CAL-12T	1.11	1.24	1.42	0.726
NCI-H2085	1.02	0.886	0.902	1.16
A549	0.659	0.653	0.734	0.348
NCI-H650	0.997	1.3	0.997	0.825
LCLC-97TM1	0.252	0.228	0.285	0.244

Cell Line	relative viability (first compound 0.4 µM)	relative viability (first compound 1.265 µM)	relative viability (first compound 4 µM)	relative viability (first compound 12.65 µM)
NCI-H2126	0.751	0.742	0.8	0.73
201T	1.05	0.975	0.992	1.04
NCI-H1915	1.05	1.02	1.04	1.06
BEN	1.03	1.01	1.06	0.858
NCI-H2347	0.966	0.993	0.986	0.995
H3255	0.759	0.741	0.633	0.503
NCI-H441	0.757	0.912	0.788	0.843
NCI-H2228	0.816	0.572	0.777	0.848
NCI-H1975	0.734	0.579	0.704	0.434
NCI-H647	1.18	1.16	1.37	0.761
A-427	1.08	1.04	1.06	1.08
LXF-289	1.13	1.08	1.1	1.02
NCI-H838	1.08	0.944	1.12	0.644
NCI-H1437	0.901	1.04	1.05	0.768
SK-LU-1	1	1.11	1.07	0.96
NCI-H1792	0.825	0.823	0.819	0.399
HCC-44	0.898	0.768	0.843	0.75
EPLC-272H	0.895	0.959	0.988	0.941
IA-LM	0.881	0.742	0.629	0.296
NCI-H358	0.508	0.821	0.868	0.789
NCI-H596	0.558	0.512	0.497	0.507
NCI-H322M	0.778	0.753	0.709	0.755
NCI-H1563	0.92	0.955	0.908	0.626
